Assay results published in PMC10745491 (Frontiers in Cellular Neuroscience, 2023).
pEC50: −log10 of the molar value. Peptide text beside a SMILES is read from it.

Assays:
N muscle-type = N muscle-type (Homo sapiens, UniProt P02708+P07510+Q07001); format: binding
alpha 2A = alpha 2A (Homo sapiens, UniProt P08913)
5-HT3 = 5-HT3 (Homo sapiens, UniProt P46098)
human OXTR = human OXTR (Homo sapiens, UniProt P30559); test: cell-based
ERalpha = ERalpha (Homo sapiens, UniProt P03372)
MAO-B enzyme = MAO-B enzyme (Homo sapiens, UniProt P27338)
M2 = M2 (Homo sapiens, UniProt P08172)
mPFC transcriptome = conditions: rat, in vivo, 0.07 mg/kg
5-HT2A = 5-HT2A (Homo sapiens, UniProt P28223); test: radioligand binding assay
H3 = H3 (Homo sapiens, UniProt Q9Y5N1)
rat V1aR = rat V1aR (Rattus norvegicus, UniProt P30560); test: cell-based; format: cell-based
sst4 = sst4 (Homo sapiens, UniProt P31391); format: binding
alpha 1A = alpha 1A (Homo sapiens, UniProt P35348); format: binding
D1 = D1 (Homo sapiens, UniProt P21728)
HIV-1 protease = HIV-1 protease (Human immunodeficiency virus type 1 group M subtype B, UniProt P04585)
[1] = test system: PFC layer 5 pyramidal neurons; conditions: rat, in vivo
CDK2 = CDK2 (Homo sapiens, UniProt P24941)

D1, sequence (P21728 whole entry): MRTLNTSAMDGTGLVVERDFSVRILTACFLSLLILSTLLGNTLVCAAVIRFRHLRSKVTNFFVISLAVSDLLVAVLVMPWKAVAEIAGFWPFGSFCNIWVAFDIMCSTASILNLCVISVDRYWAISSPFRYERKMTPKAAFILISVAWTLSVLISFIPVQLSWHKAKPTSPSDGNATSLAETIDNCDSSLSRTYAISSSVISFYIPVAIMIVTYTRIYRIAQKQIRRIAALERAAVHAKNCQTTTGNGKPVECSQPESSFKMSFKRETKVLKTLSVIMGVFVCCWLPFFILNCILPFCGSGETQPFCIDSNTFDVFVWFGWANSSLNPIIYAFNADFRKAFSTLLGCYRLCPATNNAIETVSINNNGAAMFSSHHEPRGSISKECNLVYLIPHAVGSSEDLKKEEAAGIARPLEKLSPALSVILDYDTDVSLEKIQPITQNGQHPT
5-HT3, sequence (P46098 24-478): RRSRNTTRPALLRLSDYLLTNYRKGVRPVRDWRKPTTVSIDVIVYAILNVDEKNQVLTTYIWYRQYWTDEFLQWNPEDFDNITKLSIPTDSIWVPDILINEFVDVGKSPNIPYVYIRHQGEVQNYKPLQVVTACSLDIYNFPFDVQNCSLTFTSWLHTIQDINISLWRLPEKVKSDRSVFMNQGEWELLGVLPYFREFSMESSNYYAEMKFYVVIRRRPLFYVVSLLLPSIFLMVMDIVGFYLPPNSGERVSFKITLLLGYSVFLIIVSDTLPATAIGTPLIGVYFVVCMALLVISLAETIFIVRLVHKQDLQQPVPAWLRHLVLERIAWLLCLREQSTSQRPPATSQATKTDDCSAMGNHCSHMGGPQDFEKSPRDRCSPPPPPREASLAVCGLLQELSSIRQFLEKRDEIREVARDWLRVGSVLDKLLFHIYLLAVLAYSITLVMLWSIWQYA
5-HT2A, sequence (P28223 whole entry): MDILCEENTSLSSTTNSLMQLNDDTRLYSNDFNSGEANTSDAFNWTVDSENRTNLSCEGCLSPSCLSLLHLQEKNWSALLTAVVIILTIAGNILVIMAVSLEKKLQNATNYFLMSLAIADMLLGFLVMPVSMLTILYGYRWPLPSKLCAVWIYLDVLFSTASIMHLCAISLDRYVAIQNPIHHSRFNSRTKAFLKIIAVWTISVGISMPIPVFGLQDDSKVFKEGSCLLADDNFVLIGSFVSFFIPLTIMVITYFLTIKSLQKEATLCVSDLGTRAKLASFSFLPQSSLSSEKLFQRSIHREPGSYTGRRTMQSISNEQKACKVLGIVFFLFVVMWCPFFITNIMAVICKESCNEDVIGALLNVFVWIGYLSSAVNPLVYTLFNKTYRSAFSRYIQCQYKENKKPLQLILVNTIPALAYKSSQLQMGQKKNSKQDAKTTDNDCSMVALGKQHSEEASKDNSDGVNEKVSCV
MAO-B enzyme, sequence (P27338 whole entry): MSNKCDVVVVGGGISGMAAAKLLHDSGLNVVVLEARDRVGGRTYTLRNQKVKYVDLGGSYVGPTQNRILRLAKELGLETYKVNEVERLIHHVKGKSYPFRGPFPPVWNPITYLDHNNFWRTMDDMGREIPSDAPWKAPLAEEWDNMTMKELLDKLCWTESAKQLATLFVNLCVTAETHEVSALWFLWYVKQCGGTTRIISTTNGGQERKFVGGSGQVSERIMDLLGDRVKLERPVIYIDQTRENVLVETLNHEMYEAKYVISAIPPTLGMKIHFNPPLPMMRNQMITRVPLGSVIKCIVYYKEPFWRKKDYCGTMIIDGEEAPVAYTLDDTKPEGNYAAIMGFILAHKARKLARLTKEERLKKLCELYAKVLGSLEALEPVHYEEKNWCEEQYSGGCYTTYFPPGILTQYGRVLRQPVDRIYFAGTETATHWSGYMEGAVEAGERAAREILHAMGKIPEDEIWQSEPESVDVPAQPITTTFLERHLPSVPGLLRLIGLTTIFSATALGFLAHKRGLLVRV
alpha 1A, sequence (P35348 whole entry): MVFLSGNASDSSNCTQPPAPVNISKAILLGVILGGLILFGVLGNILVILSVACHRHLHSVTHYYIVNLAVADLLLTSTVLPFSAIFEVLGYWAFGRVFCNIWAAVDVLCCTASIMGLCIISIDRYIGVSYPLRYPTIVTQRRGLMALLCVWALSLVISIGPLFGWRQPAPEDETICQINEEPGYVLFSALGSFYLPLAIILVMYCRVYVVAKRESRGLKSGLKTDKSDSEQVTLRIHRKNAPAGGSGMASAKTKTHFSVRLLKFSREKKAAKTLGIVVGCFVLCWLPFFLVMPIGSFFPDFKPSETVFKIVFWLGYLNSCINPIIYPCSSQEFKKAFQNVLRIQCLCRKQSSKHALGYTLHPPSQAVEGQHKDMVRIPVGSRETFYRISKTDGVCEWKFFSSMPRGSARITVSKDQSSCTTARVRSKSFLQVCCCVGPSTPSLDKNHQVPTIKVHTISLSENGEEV
alpha 2A, sequence (P08913 whole entry): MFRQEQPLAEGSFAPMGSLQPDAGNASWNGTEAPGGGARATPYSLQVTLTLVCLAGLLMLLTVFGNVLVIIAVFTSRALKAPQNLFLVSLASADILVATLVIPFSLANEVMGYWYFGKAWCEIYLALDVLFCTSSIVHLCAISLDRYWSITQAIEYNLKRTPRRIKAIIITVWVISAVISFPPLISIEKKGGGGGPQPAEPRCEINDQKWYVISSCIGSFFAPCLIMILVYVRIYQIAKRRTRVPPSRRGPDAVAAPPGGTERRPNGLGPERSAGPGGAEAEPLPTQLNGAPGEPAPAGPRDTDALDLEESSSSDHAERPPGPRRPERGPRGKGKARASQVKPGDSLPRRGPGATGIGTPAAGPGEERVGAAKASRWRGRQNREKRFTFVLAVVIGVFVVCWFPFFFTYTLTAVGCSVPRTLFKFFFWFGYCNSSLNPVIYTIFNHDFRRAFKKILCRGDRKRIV
N muscle-type, sequence (P11230 24-501): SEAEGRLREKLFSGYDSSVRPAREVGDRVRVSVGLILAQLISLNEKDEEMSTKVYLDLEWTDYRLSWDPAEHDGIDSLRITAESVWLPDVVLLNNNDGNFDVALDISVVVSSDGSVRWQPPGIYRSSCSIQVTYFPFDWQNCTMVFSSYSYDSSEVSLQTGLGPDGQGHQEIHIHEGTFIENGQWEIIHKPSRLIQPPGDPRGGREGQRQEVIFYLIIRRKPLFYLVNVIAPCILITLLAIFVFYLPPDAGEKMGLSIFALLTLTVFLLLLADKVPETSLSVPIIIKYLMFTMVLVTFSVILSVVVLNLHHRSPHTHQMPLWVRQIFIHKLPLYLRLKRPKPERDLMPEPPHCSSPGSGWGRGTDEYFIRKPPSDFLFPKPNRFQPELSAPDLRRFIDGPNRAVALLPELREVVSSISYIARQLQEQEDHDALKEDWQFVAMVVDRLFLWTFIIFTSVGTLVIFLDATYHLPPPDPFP
N muscle-type, sequence (P07510 23-517): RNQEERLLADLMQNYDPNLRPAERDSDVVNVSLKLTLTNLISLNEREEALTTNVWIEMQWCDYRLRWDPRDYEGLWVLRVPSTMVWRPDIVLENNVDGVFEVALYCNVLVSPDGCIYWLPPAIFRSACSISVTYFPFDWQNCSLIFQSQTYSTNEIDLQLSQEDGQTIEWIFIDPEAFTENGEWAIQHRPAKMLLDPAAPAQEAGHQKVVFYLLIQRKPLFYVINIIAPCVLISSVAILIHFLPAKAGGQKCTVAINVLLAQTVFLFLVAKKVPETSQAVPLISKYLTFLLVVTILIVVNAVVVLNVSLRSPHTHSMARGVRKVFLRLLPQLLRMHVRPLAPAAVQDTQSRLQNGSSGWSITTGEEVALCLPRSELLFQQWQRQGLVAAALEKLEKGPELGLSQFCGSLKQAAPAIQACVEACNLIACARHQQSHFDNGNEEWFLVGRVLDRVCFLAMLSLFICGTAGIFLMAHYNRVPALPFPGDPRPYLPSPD
N muscle-type, sequence (P02708 21-457): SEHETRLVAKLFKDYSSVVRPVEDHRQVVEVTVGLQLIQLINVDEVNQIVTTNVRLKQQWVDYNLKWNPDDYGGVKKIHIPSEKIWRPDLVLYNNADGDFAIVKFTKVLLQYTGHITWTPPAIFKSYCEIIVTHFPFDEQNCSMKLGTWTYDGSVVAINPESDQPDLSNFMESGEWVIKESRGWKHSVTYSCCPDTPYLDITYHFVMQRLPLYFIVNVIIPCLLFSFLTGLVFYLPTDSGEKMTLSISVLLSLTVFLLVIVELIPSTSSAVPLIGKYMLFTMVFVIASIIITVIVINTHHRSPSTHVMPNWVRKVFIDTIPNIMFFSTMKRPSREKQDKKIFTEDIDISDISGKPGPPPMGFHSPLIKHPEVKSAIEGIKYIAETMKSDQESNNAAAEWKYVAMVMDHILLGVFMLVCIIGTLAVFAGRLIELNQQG
N muscle-type, sequence (Q07001 22-517): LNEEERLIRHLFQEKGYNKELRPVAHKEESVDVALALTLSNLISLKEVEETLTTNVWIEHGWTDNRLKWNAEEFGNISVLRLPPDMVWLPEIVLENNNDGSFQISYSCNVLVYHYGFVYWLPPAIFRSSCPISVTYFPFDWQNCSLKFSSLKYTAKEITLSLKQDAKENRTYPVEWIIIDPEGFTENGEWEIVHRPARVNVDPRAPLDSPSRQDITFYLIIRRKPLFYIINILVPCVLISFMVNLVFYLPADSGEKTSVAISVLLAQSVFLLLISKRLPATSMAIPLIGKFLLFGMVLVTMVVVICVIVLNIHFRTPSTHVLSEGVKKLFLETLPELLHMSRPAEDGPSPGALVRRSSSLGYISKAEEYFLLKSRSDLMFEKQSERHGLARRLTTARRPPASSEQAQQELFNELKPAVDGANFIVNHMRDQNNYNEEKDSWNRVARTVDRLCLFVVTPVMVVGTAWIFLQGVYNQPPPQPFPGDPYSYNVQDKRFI

Structure (SMILES): CC[C@H](C)[C@@H]1NC(=O)[C@H](Cc2ccc(O)cc2)NC(=O)CNC(=O)CC[C@@H](C(=O)N2CC(F)C[C@H]2C(=O)N[C@@H](CC(C)C)C(=O)NCC(N)=O)NC(=O)[C@H](CC(N)=O)NC(=O)[C@H](CCC(N)=O)NC1=O (stereo partly drawn) [RO6958375] (HELM PEPTIDE1{G.Y.I.Q.N.E.[O=C([C@@H]1CC(F)CN1[*:1])[*:2]].L.G.[am]}$PEPTIDE1,PEPTIDE1,1:R1-6:R3$$$V2.0)
- % Inhibition of Control Specific Binding (N muscle-type): 5%
- Mean / % of Control Specific Binding (N muscle-type): 94.7%
- % Inhibition of Control Specific Binding (alpha 2A): -7%
- Mean / % of Control Specific Binding (alpha 2A): 106.7%
- % Inhibition of Control Specific Binding (5-HT3): 20%
- Mean / % of Control Specific Binding (5-HT3): 80%
- pEC50 (human OXTR): 10.60
- % Inhibition of Control Specific Binding (ERalpha): -2%
- Mean / % of Control Specific Binding (ERalpha): 101.7%
- % Inhibition of Control Specific Binding (MAO-B enzyme): -14%
- Mean / % of Control Specific Binding (MAO-B enzyme): 113.8%
- % Inhibition of Control Specific Binding (M2): -14%
- Mean / % of Control Specific Binding (M2): 113.8%
- CPA-induced transcriptomic changes (mPFC transcriptome): partially prevented
- % Inhibition of Control Specific Binding (sigma): 4%
- Mean / % of Control Specific Binding (sigma): 96.2%
- % Inhibition of Control Specific Binding (5-HT2A): 9%
- Mean / % of Control Specific Binding (5-HT2A): 90.6%
- % Inhibition of Control Specific Binding (H3): -6%
- Mean / % of Control Specific Binding (H3): 105.9%
- pEC50 (rat V1aR): < 4.57
- activity on rat V1aR (inactive up to) (rat V1aR): > 1 µM
- % Inhibition of Control Specific Binding (sst4): 17%
- Mean / % of Control Specific Binding (sst4): 82.8%
- % Inhibition of Control Specific Binding (alpha 1A): 1%
- Mean / % of Control Specific Binding (alpha 1A): 98.8%
- % Inhibition of Control Specific Binding (D1): -2%
- Mean / % of Control Specific Binding (D1): 102.2%
- % Inhibition of Control Specific Binding (HIV-1 protease): 5%
- Mean / % of Control Specific Binding (HIV-1 protease): 95.3%
- % Inhibition of Control Specific Binding (glycine): 15%
- Mean / % of Control Specific Binding (glycine): 84.6%
- current-membrane voltage relationship and input resistance after CPA [1]: normalized
- differences in passive membrane properties between control and CPA rats [1]: not observed
- effect on number of evoked action potentials after CPA [1]: only partially recovered
- effect on rheobase after CPA [1]: fully restored
- AUC of current-voltage (IV) curve (Fig. 5L) ([1]; 0.07 mg/kg): 36.9 ± 4.56
- AUC of number of action potentials per current step (Fig. 5J) ([1]; sc, 0.07 mg/kg): 9.79 ± 2.74
- input resistance (Rin) at 80 pA (Fig. 5M) ([1]; sc, 0.07 mg/kg): 180.7 MΩ
- membrane capacitance, Cm (Fig. 5E) ([1]; sc, 0.07 mg/kg): 65.11 pF
- membrane resistance, Rm (Fig. 5D) ([1]; sc, 0.07 mg/kg): 77.59 MΩ
- resting membrane potential, Vrest (Fig. 5C) ([1]; sc, 0.07 mg/kg): -66.87 mV
- rheobase (Fig. 5K) ([1]; sc, 0.07 mg/kg): 209
- % Inhibition of Control Specific Binding (CDK2): 13%
- Mean / % of Control Specific Binding (CDK2): 87.1%
